From patent US20230345986A1, “CONJUGATED DIYNES AND THEIR USE AS FLAVOR MODIFIERS” (Firmenich SA, priority 2020, published 2023)

Key:
[1] = Sensory testing for cooling/burning (tasting of compound in water solution); assay type: in vivo; settings: for taste attributes: 20 mg/L in water solution
Method: At 2 mg/L, Compound 130 was tasteless.
At 39.2 mg/L, the tingling effect was weak. […] At 2 mg/L, Compound 101 was tasteless.

[2] = system: panel of 20 taste testers; test: Sensory testing for salt enhancement (taste panel, sodium chloride solution); assay type: in vivo; set-up: key to Difference (salt enhancement effect relative to the same salt solution without the enhancer): None: No effect; +: Weak; ++: Moderate; +++: Strong
Method: Compounds 101 and 130 were evaluated for their salt-enhancement effects by a panel of 20 taste testers. The test compounds were added to solutions (0.25 wt %) sodium chloride, and tested for their sale enhancement effect relative to the same salt solution without the enhancer.

[3] = 10 ppm test compound in 0.25 wt % sodium chloride solution
[4] = 20 ppm test compound in 0.25 wt % sodium chloride solution

| SMILES | taste description ([1]; 2 mg/L in water solution) | taste attributes [1] | tingling effect ([1]; 39.2 mg/L in water solution) | taste description ([1]; 125 mg/L in water solution) | Difference (salt enhancement effect relative to the same salt solution without the enhancer) [2, 3] | Remarks (salt enhancement effect) [2, 3] | Difference (salt enhancement effect relative to the same salt solution without the enhancer) [2, 4] | Remarks (salt enhancement effect) [2, 4] | taste description ([1]; 42 mg/L in water solution) |
| --- | --- | --- | --- | --- | --- | --- | --- | --- | --- |
| C#CC#CCCCCC(=O)N1CCCCC1 [Compound 101, nona-6,8-diynoic acid piperidide] | tasteless | astringent, bitter, herbal, earthy and green | weak | tingling (mid intensity), bitter, metallic, astringent and triggered an uncomfortable feeling in the throat when swallowed | None | No effect | + | Weak |  |
| C#CC#CCC/C=C/C=C/C(=O)N1CCCCC1 [Compound 130, (E,E)-2,4-undecadien-8,10-diynoic acid piperidide] | tasteless | astringent, bitter, salty, earthy, herbal, and cooling, but no warm and hot sensation was perceived |  |  | ++ | Moderate | ++ | Moderate | long-lasting warm, hot, weak cooling after taste, as well as bitter and astringent |
